Experimental data as given in US20060069132A1, “Azolecarboxamide herbicides” (priority 2004, published 2006).

How the values were obtained:
morningglory = assay: Test A pre-/postemergence herbicide test; assay type: in vivo, Ipomoea spp.
Outline: (§1)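 Plants are held in greenhouse about ten days after treatment, then compared with untreated controls and scored 0 (no effect) to 100 (complete control). Preemergence dosing is a directed soil spray on sown sandy loam; postemergence dosing is spray to runoff at 2–10 cm height.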

velvetleaf [1] = assay: Test A pre-/postemergence herbicide test; assay type: in vivo, Abutilon theophrasti
Outline: as §1

cocklebur = assay: Test C pre-/postemergence herbicide test; assay type: in vivo, Xanthium strumarium
Outline: (§2)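 Greenhouse-grown plants were evaluated visually 12 to 14 days after treatment, with 100 meaning complete control and 0 no effect. Application was preemergence, or postemergence at 2 to 18 cm.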

goosegrass = assay: Test C pre-/postemergence herbicide test; assay type: in vivo, Eleusine indica
Outline: as §2

yellow nutsedge = assay: Test C pre-/postemergence herbicide test; assay type: in vivo, Cyperus esculentus
Outline: as §2

soybean = assay: Test C pre-/postemergence herbicide test; assay type: in vivo, Glycine max
Outline: as §2

[2] = system: common (oilseed) sunflower; assay: Test C pre-/postemergence herbicide test; assay type: in vivo, Helianthus annuus; settings: preemergence
Description: Seeds of plant species selected from bermudagrass (Cynodon dactylon (L.) Pers.), Surinam grass (Urochloa decumbens (Staph) R. D. Webster, previously named Brachiaria decumbens Stapf), cocklebur (Xanthium strumarium L.), corn (Zea mays L.), large crabgrass (Digitaria sanguinalis (L.) Scop.), woolly cupgrass (Eriochloa villosa (Thunb.) Kunth), giant foxtail (Setaria faberi Herrm.), goosegrass (Eleusine indica (L.) Gaertn.), johnsongrass (Sorghum halepense (L.) Pers.), kochia (Kochia scoparia (L.) Schrad.), lambsquarters (Chenopodium album L.), morningglory (Ipomoea coccinea L.), eastern black nightshade (Solanum ptycanthum Dunal), yellow nutsedge (Cyperus esculentus L.), pigweed (Amaranthus retroflexus L.), common ragweed (Ambrosia elatior L.), soybean (Glycine max (L.) Merr.), common (oilseed) sunflower (Helianthus annuus L.) and velvetleaf (Abutilon theophrasti Medik.) were planted and treated preemergence with test chemicals formulated in a non-phytotoxic solvent mixture which included a surfactant.
At the same time, plants selected from these crop and weed species and also winter barley (Hordeum vulgare L.), blackgrass (Alopecurus myosuroides Huds.), canarygrass (Phalaris minor Retz.), chickweed (Stellaria media (L.) Vill.), downy bromegrass (Bromus tectorum L.), green foxtail (Setaria viridis (L.) Beauv.), Italian ryegrass (Lolium multiflorum Lam.), wheat (Triticum aestivum L.), wild oat (Avenafatua L.) and windgrass (Apera spica-venti (L.) Beauv.) were treated with postemergence applications of some of the test chemicals formulated in the same manner. Plants ranged in height from 2 to 18 cm (1- to 4-leaf stage) for postemergence treatments. Plant species in the flooded paddy test consisted of rice (Oryza sativa), smallflower umbrella sedge (Cyperus difformis L.), ducksalad (Heteranthera limosa (Sw.) Willd.) and barnyardgrass (Echinochloa crus-galli (L.) Beauv.) grown to the 2-leaf stage for testing. Treated plants and controls were maintained in a greenhouse for 12 to 14 days, after which time all species were compared to controls and visually evaluated. Plant response ratings, summarized in Table C, are based on a scale of 0 to 100 where 0 is no effect and 100 is complete control. A dash (-) response means no test result.

velvetleaf [3] = assay: Test C pre-/postemergence herbicide test; assay type: in vivo, Abutilon theophrasti
Outline: as §2

ducksalad = assay: Test C flooded paddy test; assay type: in vivo, Heteranthera limosa; settings: for Plant response rating, Ducksalad: 500 g ai/ha, visual rating after 12 to 14 days
barnyardgrass = assay: Test C flooded paddy test; assay type: in vivo, Echinochloa crus-galli; settings: for Plant response rating, Barnyardgrass: 500 g ai/ha, visual rating after 12 to 14 days
Outline: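 After a postemergence application at 1 to 4 leaves (plants 2–18 cm high), or at 2 leaves for barnyardgrass in flooded paddy, plants stayed in the greenhouse for 12 to 14 days. Damage was then judged visually relative to control plants, with 100 indicating complete control.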

lambsquarters = assay: Test C pre-/postemergence herbicide test; assay type: in vivo, Chenopodium album
Outline: as §2

[4] = Postemergence, 500 g ai/ha, 0 to 100 scale, 0 no effect, 100 complete control
[5] = Postemergence, 2000 g ai/ha, 0 to 100 scale, 0 no effect, 100 complete control
[6] = Preemergence, 500 g ai/ha, visual rating, 0 to 100 scale (0 no effect, 100 complete control)
[7] = 31 g ai/ha, preemergence, scale 0 to 100
[8] = 125 g ai/ha, scale 0 (no effect) to 100 (complete control), visual, 12 to 14 days, preemergence
[9] = 62 g ai/ha, scale 0 to 100 (0 no effect, 100 complete control)
[10] = 125 g ai/ha, scale of 0 to 100, 0 is no effect, 100 is complete control
[11] = 250 g ai/ha, scale of 0 to 100, 0 is no effect, 100 is complete control
[12] = scale 0 to 100 (0 no effect, 100 complete control)
[13] = 62 g ai/ha, preemergence, scale 0 to 100
[14] = 250 g ai/ha, scale 0-100, preemergence
[15] = 500 g ai/ha, scale 0 to 100 (0 no effect, 100 complete control), visual, 12 to 14 days, preemergence
[16] = 125 g ai/ha, scale 0 to 100 (0 no effect, 100 complete control)
[17] = Postemergence, 250 g ai/ha, scale 0 to 100, 0 no effect, 100 complete control
[18] = postemergence, 125 g ai/ha, scale 0 to 100
[19] = postemergence, 62 g ai/ha, scale 0 to 100

CCOC(=O)c1cc(NC(=O)c2cc(C(C)(C)C)nn2CC)ccc1OCC [Compound 95]
Morningglory plant response rating (morningglory; [4]): 10 | Plant response rating, Morningglory (morningglory; [5]): 15 | Morningglory plant response rating (morningglory; [6]): 30 | Morningglory plant response rating (morningglory; Preemergence, 2000 g ai/ha, 0 to 100 scale, 0 no effect, 100 complete control): 55 | Velvetleaf plant response rating (velvetleaf [1]; [4]): 45 | Plant response rating, Velvetleaf (velvetleaf [1]; [5]): 50 | Velvetleaf plant response rating (velvetleaf [1]; [6]): 50 | Velvetleaf plant response rating (velvetleaf [1]; Preemergence, 2000 g ai/ha, visual rating, 0 to 100 scale (0 no effect, 100 complete control)): 80 | Plant response rating, Cocklebur (cocklebur; [7]): 0 | Plant response rating (0 = no effect, 100 = complete control), Cocklebur (cocklebur; 62 g ai/ha, preemergence): 0 | Plant response rating, Cocklebur (cocklebur; [8]): 5 | Plant response rating, Cocklebur (cocklebur; 250 g ai/ha, scale 0 to 100 (0 no effect, 100 complete control), visual, 12 to 14 days, preemergence): 10 | Plant response rating, Goosegrass (goosegrass; [7]): 0 | Plant response rating (0 = no effect, 100 = complete control), Goosegrass (goosegrass; 62 g ai/ha, preemergence): 0 | Plant response rating, Goosegrass (goosegrass; [8]): 50 | Plant response rating, Nutsedge, Yellow (yellow nutsedge; [7]): 0 | Plant response rating (0 = no effect, 100 = complete control), Nutsedge, Yellow (yellow nutsedge; 62 g ai/ha, preemergence): 0 | Plant response rating, Nutsedge, Yellow (yellow nutsedge; [8]): 0 | Plant response rating, Soybean (soybean; [7]): 0 | Plant response rating (0 = no effect, 100 = complete control), Soybean (soybean; 62 g ai/ha, preemergence): 0 | Plant response rating, Soybean (soybean; [8]): 0 | Plant response rating, Sunflower ([2]; 31 g ai/ha, scale 0 to 100): 0 | Plant response rating (0 = no effect, 100 = complete control), Sunflower ([2]; 62 g ai/ha): 0 | Plant response rating, Sunflower ([2]; 125 g ai/ha, scale 0 (no effect) to 100 (complete control), visual, 12 to 14 days): 0 | Plant response rating, Velvetleaf (velvetleaf [3]; [7]): 0 | Plant response rating, Velvetleaf (velvetleaf [3]; [8]): 60 | Ducksalad plant response rating (ducksalad; [9]): 10 | Ducksalad plant response rating (ducksalad; [10]): 25 | Ducksalad plant response rating (ducksalad; [11]): 75 | Plant response rating, Ducksalad (ducksalad; [12]): 90 | Barnyardgrass plant response rating (barnyardgrass; [9]): 20 | Barnyardgrass plant response rating (barnyardgrass; [10]): 45 | Barnyardgrass plant response rating (barnyardgrass; [11]): 55 | Plant response rating, Barnyardgrass (barnyardgrass; [12]): 60

CCn1nc(C(C)(C)C)cc1C(=O)Nc1cc(C(=O)N(C)OC)ccc1F [Compound 244]
Plant response rating, Cocklebur (cocklebur; [13]): 0 | Plant response rating, Cocklebur (cocklebur; [8]): 0 | Plant response rating, Cocklebur (cocklebur; [14]): 0 | Cocklebur plant response rating (cocklebur; Preemergence, 500 g ai/ha, scale 0 to 100, 0 no effect, 100 complete control): 0 | Plant response rating, Goosegrass (goosegrass; [13]): 70 | Plant response rating, Goosegrass (goosegrass; [8]): 95 | Plant response rating, Goosegrass (goosegrass; [14]): 100 | Plant response rating, Goosegrass (goosegrass; [15]): 100 | Plant response rating, Nutsedge, Yellow (yellow nutsedge; [13]): 0 | Plant response rating, Nutsedge, Yellow (yellow nutsedge; [8]): 0 | Plant response rating, Nutsedge, Yellow (yellow nutsedge; [14]): 0 | Plant response rating, Nutsedge, Yellow (yellow nutsedge; [15]): 0 | Plant response rating, Soybean (soybean; [13]): 0 | Plant response rating, Soybean (soybean; [14]): 10 | Plant response rating, Soybean (soybean; [15]): 15 | Plant response rating, Sunflower ([2]; 62 g ai/ha, scale 0 to 100): 0 | Plant response rating, Sunflower ([2]; 250 g ai/ha, scale 0-100): 15 | Plant response rating, Sunflower ([2]; 500 g ai/ha, scale 0 to 100 (0 no effect, 100 complete control), visual, 12 to 14 days): 20 | Plant response rating, Velvetleaf (velvetleaf [3]; [13]): 15 | Plant response rating, Velvetleaf (velvetleaf [3]; [14]): 100 | Plant response rating, Velvetleaf (velvetleaf [3]; [15]): 100 | Ducksalad plant response rating (ducksalad; [9]): 25 | Ducksalad plant response rating (ducksalad; [16]): 85 | Ducksalad plant response rating (ducksalad; [11]): 85 | Plant response rating, Ducksalad (ducksalad; [12]): 95 | Barnyardgrass plant response rating (barnyardgrass; [9]): 0 | Barnyardgrass plant response rating (barnyardgrass; [16]): 70 | Barnyardgrass plant response rating (barnyardgrass; [11]): 75 | Plant response rating, Barnyardgrass (barnyardgrass; [12]): 80

CCOC(=O)c1cccc(NC(=O)c2cc(C3(C)CC3)nn2CC)c1 [Compound 295]
Plant response rating, Cocklebur (cocklebur; [17]): 10 | Plant response rating, Cocklebur (cocklebur; [18]): 5 | Plant response rating, Cocklebur (cocklebur; postemergence, 31 g ai/ha, scale 0 to 100): 5 | Plant response rating, Cocklebur (cocklebur; [19]): 5 | Plant response rating, Goosegrass (goosegrass; [17]): 50 | Plant response rating, Goosegrass (goosegrass; [18]): 20 | Plant response rating, Goosegrass (goosegrass; [19]): 20 | Plant response rating, Lambsquarters (lambsquarters; [17]): 50 | Plant response rating, Lambsquarters (lambsquarters; [18]): 5 | Plant response rating, Lambsquarters (lambsquarters; [19]): 0 | Plant response rating, Nutsedge, Yellow (yellow nutsedge; [17]): 5 | Plant response rating, Nutsedge, Yellow (yellow nutsedge; [18]): 5 | Plant response rating, Nutsedge, Yellow (yellow nutsedge; [19]): 5 | Plant response rating, Soybean (soybean; [17]): 55 | Plant response rating, Soybean (soybean; [18]): 50 | Plant response rating, Soybean (soybean; [19]): 50 | Plant response rating, Velvetleaf (velvetleaf [3]; [17]): 70 | Plant response rating, Velvetleaf (velvetleaf [3]; [18]): 65 | Plant response rating, Velvetleaf (velvetleaf [3]; [19]): 60 | Ducksalad plant response rating (ducksalad; 62 g ai/ha, scale 0 to 100): 0 | Ducksalad plant response rating (ducksalad; [16]): 0 | Ducksalad plant response rating (ducksalad; [11]): 25 | Plant response rating, Ducksalad (ducksalad; [12]): 30 | Barnyardgrass plant response rating (barnyardgrass; [9]): 0 | Barnyardgrass plant response rating (barnyardgrass; [16]): 15 | Barnyardgrass plant response rating (barnyardgrass; [11]): 25 | Plant response rating, Barnyardgrass (barnyardgrass; [12]): 40

CCc1nn(C(C)C)nc1C(=O)Nc1cccc(C(=O)N2CCCCC2)c1 [Compound 385]
Plant response rating, Cocklebur (cocklebur; [13]): 0 | Plant response rating (0 = no effect, 100 = complete control), Cocklebur (cocklebur; 125 g ai/ha, preemergence): 0 | Plant response rating, Cocklebur (cocklebur; [14]): 100 | Plant response rating, Cocklebur (cocklebur; [15]): 100 | Plant response rating, Goosegrass (goosegrass; [13]): 70 | Plant response rating (0 = no effect, 100 = complete control), Goosegrass (goosegrass; 125 g ai/ha, preemergence): 80 | Plant response rating, Goosegrass (goosegrass; [14]): 95 | Plant response rating, Goosegrass (goosegrass; [15]): 100 | Plant response rating, Lambsquarters (lambsquarters; [13]): 75 | Plant response rating (0 = no effect, 100 = complete control), Lambsquarters (lambsquarters; 125 g ai/ha, preemergence): 100 | Plant response rating, Lambsquarters (lambsquarters; [14]): 100 | Plant response rating, Lambsquarters (lambsquarters; [15]): 100 | Plant response rating, Nutsedge, Yellow (yellow nutsedge; [13]): 100 | Plant response rating (0 = no effect, 100 = complete control), Nutsedge, Yellow (yellow nutsedge; 125 g ai/ha, preemergence): 100 | Plant response rating, Nutsedge, Yellow (yellow nutsedge; [14]): 100 | Plant response rating, Nutsedge, Yellow (yellow nutsedge; [15]): 100 | Plant response rating, Soybean (soybean; [13]): 25 | Plant response rating (0 = no effect, 100 = complete control), Soybean (soybean; 125 g ai/ha, preemergence): 100 | Plant response rating, Soybean (soybean; [14]): 100 | Plant response rating, Soybean (soybean; [15]): 100 | Plant response rating, Velvetleaf (velvetleaf [3]; [13]): 50 | Plant response rating (0 = no effect, 100 = complete control), Velvetleaf (velvetleaf [3]; 125 g ai/ha, preemergence): 85 | Plant response rating, Velvetleaf (velvetleaf [3]; [14]): 100 | Plant response rating, Velvetleaf (velvetleaf [3]; [15]): 100 | Ducksalad plant response rating (ducksalad; 62 g ai/ha, scale 0 to 100): 0 | Ducksalad plant response rating (ducksalad; [11]): 70 | Plant response rating, Ducksalad (ducksalad; [12]): 75 | Barnyardgrass plant response rating (barnyardgrass; [9]): 20 | Barnyardgrass plant response rating (barnyardgrass; [16]): 55 | Barnyardgrass plant response rating (barnyardgrass; [11]): 80 | Plant response rating, Barnyardgrass (barnyardgrass; [12]): 85
